Experimental data reported in patent publication EP0054589B1, “Organic phosphoric acid ester derivatives, a process for preparing the same and insecticidal, miticidal or nematocidal compositions containing the same” (priority 1980, dated 1982).

What was measured:
diamond back moth = test: Insecticidal effect on diamond-back moth (cabbage leaf dip); type: in vivo, Plutella xylostella; conditions: 100 ppm, after 72 hours, 25°C
Summary of the method: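 Cabbage leaves dipped 10 s in water-diluted emulsifiable concentrate at set concentration, air-dried; thirty 3rd-instar diamond-back moth larvae per cup held at 25°C. Percent mortality scored after 72 h, three replicates per treatment.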

rice stem borer = test: Insecticidal effect on rice stem borer, 3rd-instar larvae (rice seedling dip); type: in vivo, Chilo suppressalis; conditions: after 72 hours, 25°C
Summary of the method: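 Wettable-powder formulations were diluted in water to set concentrations, and rice seedlings were dipped in them. Ten 3rd-instar larvae were placed per capped cup with the treated seedlings and held at 25°C.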

smaller tea tortrix = test: Insecticidal effect on smaller tea tortrix (apple leaf dip); type: in vivo; conditions: Adoxophyes orana, foliar; Table 9; 100 ppm; after 72 hours, 25°C; wettable powder as Formulation Example 5; read-out: Percent Mortality
Protocol: Leaves of an apple tree were dipped into a dilute water suspension of a wettable powder prepared as described in Formulation Example 5. After drying in air, the leaves were charged in a 60 ml volume cup made of vinyl chloride resin, and […] 3rd-instar larvae of smaller tea tortrix were put in each cup. The cups were capped and kept at 25°C. After 72 hours, the number of the surviving insects and the dead insects were recorded to determine percent mortality. In each treatment, 3 cups and 30 insects were used in total.

tobacco cutworm = test: Long-lasting insecticidal effect on tobacco cutworm (sprayed cabbage plantlet); type: in vivo, Prodenia litura; conditions: concentration 500 (unit not given), mortality after 48 hours; for Percent Mortality After Application 3rd Day: leaves cut on 3rd day; for Percent Mortality After Application 5th Day: leaves cut on 5th day; for Percent Mortality After Application 7th Day: leaves cut on 7th day; for Percent Mortality After Application 10th Day: leaves cut on 10th day; for Percent Mortality After Application 15th Day: leaves cut on 15th day
Summary of the method: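 Cabbage plantlets sprayed with water-diluted emulsifiable concentrate and held in a greenhouse; leaves cut on days 3, 5, 7, 10 and 15 and fed to 3rd-instar larvae at 25°C. Percent mortality scored after 48 h; 3 replicates, 30 insects each.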

[1] = Table 7, emulsifiable concentrate as Formulation Example 1
[2] = Table 1, 500 ppm, wettable powder as Formulation Example 5

## CCCSP(=O)(OC)Oc1ccc2c(c1)OC(C)=CC2(C)C (stereo not drawn) [Compound No. 1]
Diamond back moth; [1]
  Percent Mortality (%): 100%
Rice stem borer; [2]
  Percent Mortality (%): 100%
Smaller tea tortrix
  mortality at 100 ppm: 100%
Tobacco cutworm; Table 5
  Percent Mortality After Application 3rd Day: 100%
  Percent Mortality After Application 5th Day: 100%
  Percent Mortality After Application 7th Day: 100%
  Percent Mortality After Application 10th Day: 100%
  Percent Mortality After Application 15th Day: 100%

## CCCSP(=O)(OCC)Oc1ccc2c(c1)OC(C)=CC2(C)C (stereo not drawn) [Compound No. 2, O-ethyl-S-propyl-O-(2,4,4-trimethyl-1,4-benzopyran-7-yl)phosphorothioate]
Diamond back moth; [1]
  Percent Mortality (%): 100%
Rice stem borer; [2]
  Percent Mortality (%): 100%
Smaller tea tortrix
  mortality at 100 ppm: 100%
Tobacco cutworm; Table 5
  Percent Mortality After Application 3rd Day: 100%
  Percent Mortality After Application 5th Day: 100%
  Percent Mortality After Application 7th Day: 100%
  Percent Mortality After Application 10th Day: 100%
  Percent Mortality After Application 15th Day: 100%

## CCCSP(=S)(OC)Oc1ccc2c(c1)OC(C)=CC2(C)C (stereo not drawn) [Compound No. 9, 0-methyl-S-propyl-(2,4,4-trimethyl-1,4-benzopyran-7-yl)phosphorodithioate]
Diamond back moth; [1]
  Percent Mortality (%): 100%
Rice stem borer; [2]
  Percent Mortality (%): 100%
Smaller tea tortrix
  mortality at 100 ppm: 100%
Tobacco cutworm; Table 5
  Percent Mortality After Application 3rd Day: 100%
  Percent Mortality After Application 5th Day: 100%
  Percent Mortality After Application 7th Day: 100%
  Percent Mortality After Application 10th Day: 100%
  Percent Mortality After Application 15th Day: 93.3%

## CCCSP(=S)(OCC)Oc1ccc2c(c1)OC(C)=CC2(C)C (stereo not drawn) [Compound No. 10]
Diamond back moth; [1]
  Percent Mortality (%): 100%
Rice stem borer; [2]
  Percent Mortality (%): 100%
Smaller tea tortrix
  mortality at 100 ppm: 96.7%
Tobacco cutworm; Table 5
  Percent Mortality After Application 3rd Day: 100%
  Percent Mortality After Application 5th Day: 100%
  Percent Mortality After Application 7th Day: 100%
  Percent Mortality After Application 10th Day: 100%
  Percent Mortality After Application 15th Day: 96.7%

## CCCSP(=O)(OCC)Oc1ccc2c(c1)OC(C)(C)C=C2C (stereo not drawn) [Compound No. 20, O-ethyl-S-propyl-0-(2,2,4-trimethyl-1,2-benzopyran-7-yl)phosphorothioate]
Diamond back moth; [1]
  Percent Mortality (%): 100%
Diamond back moth; Table 8, emulsifiable concentrate as Formulation Example 4
  Percent Mortality (%): 100%
Rice stem borer; Table 1, 100 ppm, wettable powder as Formulation Example 5
  Percent Mortality (%): 100%
Rice stem borer; [2]
  Percent Mortality (%): 100%
Rice stem borer; Table 2, 100 ppm, wettable powder as Formulation Example 7
  Percent Mortality (%): 100%
Tobacco cutworm; Table 5
  Percent Mortality After Application 3rd Day: 100%
  Percent Mortality After Application 5th Day: 100%
  Percent Mortality After Application 7th Day: 100%
  Percent Mortality After Application 10th Day: 100%
  Percent Mortality After Application 15th Day: 33.3%
Tobacco cutworm; Table 6
  Percent Mortality After Application 3rd Day: 100%
  Percent Mortality After Application 5th Day: 100%
  Percent Mortality After Application 7th Day: 100%
  Percent Mortality After Application 10th Day: 90.0%
  Percent Mortality After Application 15th Day: 46.7%
  Percent Mortality After Application Immediately after Application: 100%
